# Reference: patent US10940139B2, “Compounds that interact with the Ras superfamily for the treatment of cancers, inflammatory diseases, rasopathies, and fibrotic disease” (Shy Therapeutics LLC, priority 2017, dated 2021)
# Tested on: MIA-PACA2 pancreatic cancer cell lines
# Test: Cell proliferation assay (CellTiter 96 AQueous One)
# Assay type: cell-based
# Conditions: Homo sapiens, MIA PaCa-2; MIA-PACA2, same assay as the % inhibition (standard conditions)
# Method: Cell lines: Tumor-derived pancreatic cancer cell lines MIA-PACA2 were purchased from ATCC and grown in complete DMEM-High Glucose medium supplemented with penicillin (100 U/mL), streptomycin (100 μg/mL), and 10% heat-inactivated FBS at 37° C. in a humidified incubator with 5% CO2.
# Method: Cells are plated at 1000 cells/well density in 96-wells plate, starved ON, and the next day tested small molecules are added to the cells in the final concentration of 30 μM with 0.3% DMSO 3 hours prior to 10% FBS addition. After serum addition cells are incubated for 6 days at 37° C. in a humidified incubator with 5% CO2. For IC50 value determination, serial dilutions of compounds were added to cells under the same conditions.
# Assay: At the end of the incubation period, cell cultures are tested using the CellTiter 96® AQueous One Solution Cell Proliferation Assay kit (Promega Corporation, Madison, Wis.) according to the manufacturer specifications. Briefly, assay is performed by adding 20 μl of the CellTiter 96 Aqueous One Solution Reagent directly to culture wells, followed by for 1-4 hours incubation at 37° C. in a humidified incubator with 5% CO2. At the end of incubation time, absorbance at 492 nm is recorded with the 96-well plate reader Eppendorf AF2200, and degree of small molecule-dependent proliferation inhibition is calculated from raw data assuming No Serum cells value as 100%.
row,Compound,IC50 [nM]
1,Oc1nc(-c2ccccn2)nc2c(Br)csc12 [drawing 1562],501 to 1000
2,CN(C)Cc1ccc(-c2csc3c(O)nc(-c4ccccn4)nc23)cc1F [drawing 1721],100 to 500

# Same assay, conditions: Homo sapiens, MIA PaCa-2; at 30 μM, MIA-PACA2
row,Compound,inhibition at 30 µM [%]
1,CCOCCC1CCN(C(=O)c2csc3c(O)nc(-c4ccccn4)nc23)CC1 [drawing 1565],76 to 100
2,CN(C)Cc1ccc(F)c(-c2csc3c(O)nc(-c4ccccn4)nc23)c1 [drawing 1777],76 to 100
3,Oc1nc(-c2ccccn2)nc2c1CCCN2 [drawing 1542],1 to 25
4,O=C(Nc1nc(-c2ccccn2)cs1)C1COc2ccccc2O1 (centres unmarked) [drawing 1473],76 to 100
5,O=c1nc(-c2ccccn2)[nH]c2c1CCC2 [drawing 1498],1 to 25
6,COc1cccc(CC(=O)Nc2nnc(-c3ccccn3)[nH]2)c1 [drawing 1390],25 to 50
7,Nc1nc(O)c2scc(-c3ccccc3)c2n1 [drawing 1580],25 to 50
8,Oc1nc(-c2ccccn2)nc2c(Br)csc12 [drawing 1562],76 to 100
9,COc1ccncc1CCNC(=O)c1csc2nc(-c3ccccn3)nc(N3CCOCC3)c12 [drawing 1673],76 to 100
10,COCCCCNC(=O)c1csc2nc(-c3ccccn3)nc(N3CCS(=O)(=O)CC3)c12 [drawing 1702],1 to 25
11,Cc1nnc(C(Nc2nc(-c3ccccn3)nc3scc(-c4ccccc4)c23)c2ccccc2)n1C (centres unmarked) [drawing 1596],76 to 100
12,c1ccc(-c2csc3nc(-c4ccccn4)nc(N4CCOCC4)c23)cc1 [drawing 1618],76 to 100
13,Nc1nc(O)c2nc[nH]c2n1 [drawing 1629],1 to 25
14,O=C(c1csc2c(O)nc(-c3ccccn3)nc12)N1CCOC(Cc2ccccc2)C1 (centres unmarked) [drawing 1664],76 to 100
15,CS(=O)(=O)c1cccc(C(=O)N2CCCc3c(O)nc(-c4ccccn4)nc32)c1 [drawing 1549],1 to 25
16,N#Cc1ccc(CC(=O)Nc2ccnc(-c3ccccn3)n2)cc1 [drawing 1586],76 to 100
17,COc1ccnc(-c2nc(O)c3c(C#N)csc3n2)c1 [drawing 1675],76 to 100
18,CCN(CC)S(=O)(=O)c1ccc(NCCOC)c(C(=O)NCCSCc2ccc(C)cc2)c1 [drawing 1538],76 to 100
19,COc1cnc(-c2ccccn2)nc1O [drawing 1791],76 to 100
20,COC(=O)c1cccc(CN2CCC(CSc3ccccc3)C2)c1C#N (centres unmarked) [drawing 1517],76 to 100
21,O=C(Nc1nnc(-c2ccccn2)[nH]1)c1ccn(-c2cccc(Cl)c2)n1 [drawing 1468],76 to 100
22,COc1ccccc1C1CN(C(=O)c2csc3c(O)nc(-c4ccccn4)nc23)CCO1 (centres unmarked) [drawing 1660],76 to 100
23,OCCNc1nc(-c2ccccn2)nc2scc(-c3ccccc3)c12 [drawing 1509],76 to 100
24,O=C(c1csc2c(O)nc(-c3ccccn3)nc12)N1CCc2ccccc2CC1 [drawing 1579],76 to 100
25,Cc1sc2[nH]c(-c3ccccn3)nc(=O)c2c1-c1ccccc1 [drawing 1493],76 to 100
26,N#Cc1ccc(CCNC(=O)c2csc3nc(-c4ccccn4)nc(N4CCOCC4)c23)cc1 [drawing 1644],25 to 50

row,Compound,inhibition at 30 µM [%]
1,Nc1nc(-c2ccccn2)nc2c(-c3ccccc3Cl)csc12 [drawing 1711],76 to 100
2,Oc1nc(-c2ccccn2)nc2c(-c3cc(C(F)(F)F)ccc3F)csc12 [drawing 1787],76 to 100
3,COc1cccc(C2CN(C(=O)c3csc4c(O)nc(-c5ccccn5)nc34)CCN2)c1 (centres unmarked) [drawing 1666],76 to 100
4,O=C(c1csc2c(O)nc(-c3ccccn3)nc12)N1CCN(Cc2cccc(O)c2)CC1 [drawing 1634],76 to 100
5,O=C(CN1CCN(c2nc(-c3ccccn3)nc3scc(-c4ccccc4)c23)CC1)NC1CC1 [drawing 1621],76 to 100
6,Cc1sc2c(N)nc(-c3ccccn3)nc2c1Br [drawing 1769],76 to 100
7,Cc1cc(C(=O)Nc2nc(-c3ccccn3)cs2)no1 [drawing 1475],76 to 100
8,COc1cc(CCN(C)C(=O)c2csc3nc(-c4ccccn4)nc(N4CCOCC4)c23)ccn1 [drawing 1674],76 to 100
9,Cc1cccc(CN(Cc2ccccn2)Cc2nccn2C)c1 [drawing 1519],76 to 100
10,Oc1nc(-c2ccccn2)nc2sc3c(c12)CCCNC3 [drawing 1728],25 to 50
11,COc1ccc(CCNC(=O)c2csc3nc(-c4ccccn4)nc(N4CCS(=O)(=O)CC4)c23)cn1 [drawing 1729],51 to 75
12,COCCCCN(C)C(=O)c1csc2nc(-c3ccccn3)nc(N3CCOCC3)c12 [drawing 1683],76 to 100
13,CC(Oc1ccccc1Cl)C(=O)Nc1nnc(-c2ccccn2)[nH]1 (centres unmarked) [drawing 1396],76 to 100
14,O=C(Nc1nnc(-c2ccccn2)[nH]1)C1Cc2ccccc2O1 (centres unmarked) [drawing 1422],1 to 25
15,CC(=O)N1CCN(c2nc(-c3ccccn3)nc3scc(-c4ccccc4)c23)CC1 [drawing 1626],76 to 100
16,Cc1nc(-c2ccccn2)nc(O)c1CCC(=O)NCCc1cccs1 [drawing 1502],76 to 100
17,O=C(Nc1nnc(-c2ccccn2)[nH]1)c1ccc(=O)n(CCOc2ccccc2)n1 [drawing 1463],76 to 100
18,CCn1nnc2cc(C(=O)Nc3nnc(-c4ccccn4)[nH]3)ccc21 [drawing 1420],51 to 75
19,O=C(CCc1cnn(-c2ccccc2)c1)Nc1nnc(-c2ccccn2)[nH]1 [drawing 1383],76 to 100
20,O=C(Nc1nc(-c2ccccn2)cs1)c1ccccn1 [drawing 1480],76 to 100
21,Oc1nc(-c2ccccn2)nc2c(-c3ccc(CN4CCOCC4)cc3)csc12 [drawing 1758],76 to 100
22,O=C(O)c1cc2nc(-c3ccccn3)nc(O)c2s1 [drawing 1726],51 to 75
23,CNS(=O)(=O)CCCNC(=O)c1csc2nc(-c3ccccn3)nc(N3CCOCC3)c12 [drawing 1684],76 to 100
24,Cn1cc(-c2nc(C(=O)Nc3nnc(-c4ccccn4)[nH]3)cs2)cn1 [drawing 1403],76 to 100
25,O=c1nc(-c2ccccn2)[nH]c2sc(-c3ccccc3)cc12 [drawing 1495],76 to 100
26,COc1cccc(CC2CN(C(=O)c3csc4c(O)nc(-c5ccccn5)nc34)CCN2)c1 (centres unmarked) [drawing 1706],1 to 25

row,Compound,inhibition at 30 µM [%]
1,O=S(=O)(c1ccccc1)N1CCCc2c(O)nc(-c3ccccn3)nc21 [drawing 1553],25 to 50
2,O=C(CC(c1ccccc1)c1ccccc1)N1CCCc2c(O)nc(-c3ccccn3)nc21 [drawing 1555],76 to 100
3,Oc1nc(-c2ccccn2)nc2c(-c3ccc(F)cc3F)csc12 [drawing 1747],76 to 100
4,Nc1nc(-c2ccccn2)nc2c(-c3ccccc3)csc12 [drawing 1735],76 to 100
5,Cc1nc(-c2ccccn2)nc(O)c1CCC(=O)Nc1ccc(C(C)C)cc1 [drawing 1505],76 to 100
6,COc1cn(-c2ccccc2)nc1C(=O)Nc1nnc(-c2ccccn2)[nH]1 [drawing 1466],51 to 75
7,COc1ccc(C(=O)Nc2nc(-c3ccccn3)cs2)cn1 [drawing 1488],76 to 100
8,CN(C)Cc1ccc(-c2csc3c(O)nc(-c4ccccn4)nc23)cc1F [drawing 1721],76 to 100
9,NC(=O)C1CCCN(c2nc(-c3ccccn3)nc3scc(-c4ccccc4)c23)C1 (centres unmarked) [drawing 1624],76 to 100
10,Cc1ccccc1C1CN(C(=O)c2csc3c(O)nc(-c4ccccn4)nc23)CCN1 (centres unmarked) [drawing 1668],76 to 100
11,O=C(NCCc1cccnc1)c1csc2nc(-c3ccccn3)nc(N3CCOCC3)c12 [drawing 1638],76 to 100
12,O=C(Nc1nc(-c2ccccn2)cs1)c1ccncc1 [drawing 1485],76 to 100
13,COc1ccc(CCN(C)C(=O)c2csc3nc(-c4ccccn4)nc(N4CCOCC4)c23)cn1 [drawing 1640],76 to 100
14,Cc1cncc(-c2csc3c(O)nc(-c4ccccn4)nc23)c1 [drawing 1789],76 to 100
15,Cc1sc2nc(N)nc(O)c2c1C [drawing 1630],1 to 25
16,Oc1nc(-c2ccccn2)nc2c(-c3cncc(C(F)(F)F)c3)csc12 [drawing 1788],76 to 100
17,Cc1ccc(C(=O)Nc2nnc(-c3ccccn3)[nH]2)cc1S(C)(=O)=O [drawing 1391],51 to 75
18,Cc1noc(C)c1CC(=O)Nc1nnc(-c2ccccn2)[nH]1 [drawing 1411],25 to 50
19,Nc1nc(-c2ccccn2)nc2c(Br)csc12 [drawing 1768],25 to 50
20,COC(=O)c1cncc(C(=O)Nc2nnc(-c3ccccn3)[nH]2)c1 [drawing 1441],25 to 50
21,COCCCCNC(=O)c1csc2nc(-c3ccccn3)nc(N3CCOCC3)c12 [drawing 1682],76 to 100
22,O=C(CCCc1cccnc1)N1CCCc2c(O)nc(-c3ccccn3)nc21 [drawing 1556],76 to 100
23,COc1ccc(-c2csc3[nH]c(-c4ccccn4)nc(=O)c23)cc1 [drawing 1489],76 to 100
24,Oc1nc(-c2ccccn2)nc2sc3c(c12)CCNC3 [drawing 1727],76 to 100
25,Oc1nc(-c2ccccn2)nc2c(-c3ccc(Cl)c(Cl)c3)csc12 [drawing 1785],76 to 100
26,O=C(Nc1nnc(-c2ccccn2)[nH]1)C1Cc2cc(Cl)ccc2O1 (centres unmarked) [drawing 1459],76 to 100
